We go through three molecules from article PMC5473904, “Epigenetic and antitumor effects of platinum(IV)-octanoato conjugates” (Scientific Reports, 2017).

One data set concerns A2780 cells. The data set can be described thus: Pt accumulation in A2780 cells with and without serum, BSA or lipoproteins. Type of data set: cell-based, human. The conditions noted are these: A2780, 10 μM, 4 h. Here is the method: Interactions with serum proteins
The trends observed in the results of the in vivo antitumor activity experiments, such as the tissue biodistribution (Fig. S2A), blood levels (Fig. S2B), and cellular accumulation (Table 2) of Pt(IV) complexes could be also related to their sequestration by plasma proteins, mainly by 8 human serum albumin . Thus, the accumulation experiments in cellulo were carried out employing A2780 cells without serum (and therefore without BSA) in the culture medium. As shown in Fig. S3, when passing from the treatment in complete medium (+FBS) to the […]
Supplementary Figure S3: Pt accumulation in A2780 cells treated with Pt(IV) prodrugs […]
treatment in complete medium (+FBS) and in serum-free medium (- FBS). Data are means of at least three replicates and were tested using the two sample t-test (***p<0.001). […]
medium supplemented with 10% FBS contains 30 µM BSA, which is known to transport octanoate9,10, and 300 μg mL-1 cholesterol in the most lipophilic component, i.e. lipoproteins11, which are known to transport lipophilic drugs12,13. To verify whether the accumulation of Pt(IV)diOA could be mainly affected by BSA or lipoproteins, the experiments were repeated in serum-free medium supplemented with BSA (-FBS, + BSA) or LPC, lipoprotein-rich cholesterol (-FBS + LPC), respectively (see experimental part). As […]
(1 picture or pasted object on this page, not shown here)
(control, -FBS), in serum-free medium supplemented with 30 µM BSA (-FBS, + BSA), with lipoproteins (-FBS + LPC), and in complete medium (+FBS). Data are means of at least three replicates and were tested using the two sample t-test (***p<0.001). […]
Co.) and transferred into a microwave Teflon vessel. Subsequently, samples were submitted to the standard procedure using a speed microwave. After cooling, each mineralized sample was analyzed for platinum by ICP-MS (ThermoOptek X Series 2). Instrumental settings were optimized to achieve maximum sensitivity for platinum. For quantitative determination, the most abundant isotopes of platinum and indium (used as internal standard) were measured at m/z 195 and 115, respectively.
Accumulation of platinum in tumor cells treated with Pt(IV) complexes and cisplatin (in cellulo experiments) in the absence of serum. A2780 cells were seeded in 10 mm Petri dishes and treated with the platinum complexes (10 μM) for 4 h in complete medium, i.e. + 10 % FBS (HyClone, GE Healthcare). At time zero, 100 μL of medium was taken out from each sample to check the extracellular Pt concentration. […]
The level of Pt found in cells after drug treatment and normalized 6 upon the cell number (cellular Pt accumulation) was expressed as ng Pt per 10 cells. […]

The subject of data set [1] is LNCaP human prostate adenocarcinoma cells. The data set can be described thus: MTT cytotoxicity, 72 h. The conditions noted are these: platinum complexes. The format is cell-based.
Data set [2] relates to HSF human primary skin fibroblasts. In words: MTT cytotoxicity, 72 h. Type of data set: cell-based. Conditions: platinum complexes.
Data set [3] relates to MRC-5 (PD30) human fetal lung fibroblasts. In words: MTT cytotoxicity, 72 h. Conditions: platinum complexes. Type of data set: cell-based.

As to `CCCC(CCC)C(=O)[O][Pt]([NH2])([NH2])([Cl])([Cl])[O]C(=O)C(CCC)CCC` [Pt(IV)diVPA, cis, cis, trans-[Pt(IV)(NH3)2Cl2(VPA)2]], the “Change of Pt accumulation from complete medium (+FBS) to serum-free medium (-FBS)” value with A2780 cells is on record as “no significant change”.

For `CCCCCCCC(=O)[O][Pt]([NH2])([NH2])([Cl])([Cl])[O]C(=O)CCCCCCC` [Pt(IV)diOA, cis, cis, trans-[Pt(IV)(NH3)2Cl2(OA)2]], the IC50 (commonly the midpoint of a concentration-inhibition curve) amounted to 0.052 ± 0.005 µM in data set [1], 0.077 ± 0.001 µM in data set [2] and 0.052 ± 0.003 µM in data set [3]. Moreover, the “Change of Pt accumulation from complete medium (+FBS) to serum-free medium (-FBS)” value with A2780 cells is listed as 3 fold. The “Effect of BSA addition to serum-free medium on Pt accumulation” value with A2780 cells (-FBS + BSA) is on record as “negligible effect”. Besides, in the data set with A2780 cells (-FBS + LPC), the “Effect of LPC (lipoprotein-rich cholesterol) supplementation of serum-free medium on Pt accumulation” value was “decreased Pt accumulation”.

As to `N.N.[Cl][Pt][Cl]` [cisplatin, reference compound], the IC50 in data set [1] stood at 8.54 ± 1.78 µM; in data set [2], 69 ± 0.87 µM; in data set [3] it was 10.6 ± 0.38 µM.
